What was measured:
[1] = tested on: PANC-1 cell line; assay: Growth inhibition (GI50) assay, SRB, PANC-1; assay type: cell-based; settings: Homo sapiens, 120 h, PANC-1 (KRas mutant, TP53 mutant, CDKN2A homozygous deletion, SMAD4 wild-type), 5 days
Description: (§1) BxPC-3 and PANC-1 cell lines were obtained from American Type Culture Collection (ATCC, Manassas, Va.) and maintained according to the supplier's instructions. Short tandem repeat (STR) profiling was used to verify authenticity of the cell lines. Sixteen STR loci were simultaneously amplified in a multiplex PCR reaction (The Hospital for Sick Children, Toronto, Canada), and the ATCC database was used for comparison, where possible. Cell lines were routinely tested for mycoplasma and used at low passage numbers (<15).
(§2) Cells were seeded at 3000 per 80 μL, into 96-well plates according to cell growth rate 24 hours before compound overlay and cultured at 37° C. and 5% CO2. Compounds were prepared as 10 mM stocks in 100% DMSO. […] After 5 days, cell growth in each well was assessed by the sulforhodamine B (SRB) assay measuring total protein content. […] The SRB was solubilized with 100 μL of 10 mM Tris pH 10.5 per well, and absorbance was read at 570 nm using a SpectraPlus microplate reader (Molecular Devices Corporation). SRB absorbance values were adjusted by subtracting the average of the baseline readings from untreated cells assessed one day after cell seeding. The percentage (%) of relative inhibition of cell growth was calculated by comparing to DMSO-treated cells. GI50s were calculated using GraphPad PRISM software (GraphPad Software Inc., San Diego, Calif.).

[2] = tested on: patient-derived pancreatic xenograft models; assay: Orthotopic patient-derived pancreatic xenograft models, mono-therapy; assay type: in vivo, NOD/SCID mice
Description: 6 orthotopically implanted patient-derived pancreatic xenograft models with varying growth rates and levels of tumor hypoxia were used in order to investigate the efficiency of the Compound II as a mono-therapy or in combination with Gemcitabine.
The patient-derived pancreatic xenograft models were established by attaching a piece of the patient tumor on the pancreas of 4-5 week old Non-obese diabetic (NOD)/Severe combined immunodeficiency (SCID) mice. The xenograft models closely resemble the morphology of the patient specimen and represent the range of tumor morphologies described in pancreatic cancer patients.
Tumor volume was evaluated by palpation and animals were randomized into treatment groups. Animals were treated with Compound II using a daily dose of 7.5 mg/kg by oral gavage for 21 days for experiments evaluating activity as a mono-therapy, or with 13.5 mg/kg according to a 2-day-on-5-days-off schedule in combination bi-weekly 100 mg/kg Gemcitabine for 21 days.
Tumor weight after completion of the treatment and overall survival were evaluated. Immunofluorescence (IF) staining of xenograft sections was used to evaluate tumor hypoxia and proliferation. The impact of Compound II treatment on survival was examined in 6 animals per group. Mice were followed until the animals either died or had to be euthanized due to oversized tumors.

[3] = tested on: OCIP110 tumors; assay: OCIP110 orthotopic xenograft, Compound II alone or with Cisplatin; assay type: in vivo, SCID mice; settings: Compound II 10 mg/kg 2-on/5-off schedule, 21 days
Method: OCIP110 tumors were implanted orthotopically onto the pancreas of 4-5 week old SCID mice. Tumor volume was evaluated by palpation and animals were randomized into treatment groups. Animals were treated with either Compound II on a 2-on/5-off schedule with 10 mg/kg, a weekly dose of 4 mg/kg Cisplatin or the combination treatment for 21 days. Tumor weight was evaluated when tumors were excised at the end of the treatment.

[4] = tested on: BxPC-3 cell line; assay: Growth inhibition (GI50) assay, SRB, BxPC-3; assay type: cell-based; settings: Homo sapiens, 120 h, BxPC-3 (KRas wild-type, TP53 mutant, SMAD4 homozygous deletion), 5 days
Description: as §1, §2

[5] = tested on: OCIP51 xenograft tumor initiating cells; assay: Limiting dilution assay for tumor initiating cells (TIC); assay type: in vivo, NOD/SCID mice; settings: 52 mg/kg, tumors harvested 12 h after treatment, preliminary results
Method: FIG. 2(C) is a schematic overview of the limiting dilution assay. Briefly, xenograft tumors were grown to a diameter of approximately 1 cm and treated with 52 mg/kg Compound II and tumors harvested 12 h after treatment. Excised tumors were mechanically minced and a single cell suspension prepared using a DNAse, Collagenase and Protease cocktail. A sample of the single cell suspension was stained for mouse CD31-FITC and H2K-FITC to establish the mouse cell content. Cells were counted using a haemocytometer and the human content was calculated. 3-6 dilutions of human cells per sample were injected into the flank of NOD/SCID mice. 3 mice were injected into both flanks per dilution. Tumor take rate was observed over the course of 6 month. Tumor initiating frequency was calculated from using the L-Calc software. […] The remaining 3 xenograft models have been injected for the dilutions.

COc1ccc2c(c1)[C@]1(C[C@H]1c1ccc3c(/C=C/c4ccc(CN5CCOCC5)cc4)n[nH]c3c1)C(=O)N2C [Compound II]
GI50 [1]: 25 nM
Tumor weight after completion of the treatment ([2]; 7.5 mg/kg daily by oral gavage for 21 days, mono-therapy, 6 xenograft models): significantly reduced tumor weight in 4 of the 6 tested patient-derived pancreatic xenograft models
medium survival ([2]; OCIP51 (highly hypoxic, fast growing) model, 7.5 mg/kg daily oral, 21 days, vehicle 54 days): 103 days
overall survival ([2]; mono-therapy for 21 days, responsive models): increase in overall survival in a number of responsive models
response to treatment versus tumor hypoxia ([2]; mono-therapy, highly hypoxic versus medium or low hypoxic models, preliminary results): strongest response to Compound II as a mono-therapy was observed in highly hypoxic models
Tumor weight at the end of the treatment [3]: reduced tumor weight
GI50 [4]: 15 nM
Number of tumor initiating cells (TICs) [5]: reduced the number of TICs in OCIP51

— patent publication US9642856B2, “Treatment for pancreatic cancer” (University Health Network, priority 2013, dated 2017)
